Results: US4405609A, “Combination and method for increasing feed utilization efficiency in ruminants” (Eli Lilly and Company, priority 1982, dated 1983)

Assays:
steers [1] = test: further analysis of feed efficiency data: expected versus observed change; assay type: in vivo
Text: When the components are utilized in amounts that are about their respective optimal dose levels when used alone, the combination causes an unexpected increase in feed utilization efficiency, which is believed the result of continued unexpected interaction. The results of this further analysis of data is presented below:
In the foregoing table, Δ is the change in feed efficiency of the treated group over the nontreated group. […] The change in efficiency is thus 0.14. The term "EΔ" is the change in efficiency expected with a combination, and is arrived at by adding the Δ values of the individual components at the appropriate dose levels. The term "OΔ" is the change in efficiency over nontreated controls actually observed with animals receiving the combination.

[2] = dose giving largest increase in propionate production
Text: The compositions provided herein comprise a polyether as defined above and a glycopeptide as defined above. The respective components will be present on a weight basis in a ratio of about 1 to about 10 parts polyether together with about 1 to about 10 parts glycopeptide. For example, a polyether such as narasin will be employed at a concentration level of about 1 to about 20 grams per ton of ruminant feedstuff, together with a glycopeptide such as avoparcin or actaplanin at a concentration level of about 5 to about 50 grams per ton of ruminant feedstuff. A particularly preferred embodiment of the invention is a combination of narasin at about 2 to about 10 grams per ton of feedstuff, and actaplanin at about 5 to about 20 grams per ton. […] Typically, the maximal doses of each component to be employed in accordance with the present invention are substantially the same as the maximal doses for effective growth promotion and feed utilization enhancement by the individual components. […] Similarly, actaplanin at a dose of about 30 grams per ton of feed effects the largest increase in propionate production observed with that agent. […]

[3] = system: Hereford crossbred steers; test: 140-day narasin/actaplanin feed study; assay type: in vivo
Text: Another study was designed to show the unexpected interaction of the polyether narasin in combination with actaplanin. Two hundred forty Hereford crossbred steers averaging about 700 pounds and about 18 months of age were employed. The animals were fed corn silage and high moisture corn, plus two pounds per head per day of the following cattle supplement:
The treatments comprised three dose levels of narasin (0, 4 and 12 g./T.) and four dose levels of actaplanin (0, 10, 20 and 40 g./T.). The animals were randomly assigned to four blocks of twelve partially sheltered pens, each with five animals per pen. The treatments were allotted at random within the four 12-pen blocks such that each treatment was represented in each block. Each of the twelve treatments was replicated four times.

steers [4] = test: combined data of the three steer studies, percentage response versus untreated controls; assay type: in vivo
Text: The following figures report such data expressed as a percentage response when compared with untreated control animals.

rumen fluid = test: in vitro rumen fluid fermentor assay of propionate production; assay type: cell-based, steers; conditions: Monensin 0 PPM, ± SD
Text: Rumen fluid was obtained from steers which had surgically-installed fistula openings into the rumen. The steers were maintained on a high-grain ration such as the one described above.
A sample of rumen fluid was strained through four layers of cheese cloth and the eluate was collected in vacuum bottles. The particulate matter retained by the cheese cloth was resuspended in enough physiological buffer to return it to the original volume of the rumen fluid, and the eluate was strained again. The buffer utilized is described by Cheng et al., J. Dairy Sci., 38, 1225 (1955).
The two eluates were combined in a separatory funnel and allowed to stand until any remaining particulate matter separated to the top. The clear liquid layer then was removed, diluted with an equal volume of the above-mentioned buffer, and the pH of the solution was adjusted to 7.0.
Fermenter flasks were then changed with the rumen liquor thus prepared. Two fermentor flasks were used per each treatment group. The fermentor flasks were allowed to stand for four days for equilibration, and then measurements of proprionate production were made daily for six days in order to establish a control. Measurements were made by gas chromatographic methods. The fermenter flasks were then fed 20 grams per day of a finely ground ration composed of 20 percent high concentrate ration and 80 percent alfalfa hay. The individual feed efficiency enhancers, and the composition of such enhancers provided by this invention, were added to the feed and dried thereon prior to introduction of the feed ration into the fermentor flasks. The feed ration was introduced into the flasks approximately two times each day. After the initial administration of active ingredient, two days were allowed for reequilibration, and then the volatile fatty acid (VFA) production in each flask was monitored by gas chromatography for five days.

[5] = system: Hereford crossbred steers; test: 140-day monensin/actaplanin feed study, corn silage diet; assay type: in vivo
Description: The animals were divided into a control group and into eleven test groups. All animals were fed a corn silage diet ad libitum once daily throughout the 140-day study, plus two pounds per head per day of the following cattle supplement:
Test compounds were formulated as a premix with 50 percent by weight of ground corn cobs and 48 percent by weight of ground corn. The premixes were added to the corn silage feed rations in amounts necessary to provide the desired doses of active ingredients to the test animals. The data are presented as the average for the entire group of animals receiving a particular dose of active agent.
In the foregoing table, the Feed Efficiency value is calculated by dividing the average amount of feed consumed (pounds of dry matter intake) by the average daily gain in weight (in pounds). Ideally, the animals will gain more weight on less feed intake. Accordingly, the most improvement in feed utilization efficiency is represented by smaller numbers. […] The optimum in this experiment was 10 g./T. of monensin and 40 g./T. of actaplanin which produced a 13.5% improvement in feed efficiency over untreated controls.

feeder calves = test: in vivo evaluation of monensin and actaplanin in feeder calves on high-grain ration; conditions: 30 grams per ton of each agent in feed
Text: For example, in a typical in vivo evaluation of the combination of monensin and actaplanin, feeder calves were fed a high-grain ration such as that recited above. Fifteen control animals received the feed ration with no feed efficiency enhancer additive. Another group of fifteen calves received the feed ration containing monensin at 30 grams per ton, while a third group of fifteen animals received the feed ration with actaplanin at 30 grams per ton. A combination of 30 grams per ton of monensin and 30 grams per ton of actaplanin was administered as a feed additive to the ration consumed by a fourth group of fifteen test animals. […] The feed efficiency of such control group, calculated as the pounds of feed consumption required for one pound of animal weight gain, was 13.49.

[6] = polyether 0, actaplanin 10 g./T.
[7] = polyether 0, actaplanin 20 g./T.
[8] = polyether 0, actaplanin 40 g./T.
[9] = monensin 0, actaplanin 10 grams/Ton
[10] = monensin 0, actaplanin 20 grams/Ton
[11] = monensin 0, actaplanin 40 grams/Ton

actaplanin
Δ, change in feed efficiency of the treated group over the nontreated group (steers [1]; actaplanin 10 g./T. alone): 0.09
Δ, change in feed efficiency of the treated group over the nontreated group (steers [1]; actaplanin 20 g./T. alone): 0.28
Δ, change in feed efficiency of the treated group over the nontreated group (steers [1]; actaplanin 40 g./T. alone): 0.36
Feed efficiency (feed to gain ratio) (steers [1]; monensin 0, actaplanin 10 g./T.): 6.00
Feed efficiency (feed to gain ratio) (steers [1]; monensin 0, actaplanin 20 g./T.): 5.81
Feed efficiency (feed to gain ratio) (steers [1]; monensin 0, actaplanin 40 g./T.): 5.73
dose that effects the largest increase in propionate production observed with that agent [2]: about 30 grams per ton of feed
feed intake (in words) ([3]; actaplanin alone at 20 g./T.): slight decrease in feed intake
improved daily gains ([3]; actaplanin alone at 20 g./T.): 5.9%
Average Daily Dry Matter Intake ([3]; narasin 0, actaplanin 10 g./T.): 16.47 Pounds
Average Daily Weight Gain ([3]; narasin 0, actaplanin 10 g./T.): 2.54 Pounds
Average Feed Efficiency ([3]; narasin 0, actaplanin 10 g./T.): 6.47
Average Daily Dry Matter Intake ([3]; narasin 0, actaplanin 20 g./T.): 16.51 Pounds
Average Daily Weight Gain ([3]; narasin 0, actaplanin 20 g./T.): 2.66 Pounds
Average Feed Efficiency ([3]; narasin 0, actaplanin 20 g./T.): 6.19
Average Daily Dry Matter Intake ([3]; narasin 0, actaplanin 40 g./T.): 16.02 Pounds
Average Daily Weight Gain ([3]; narasin 0, actaplanin 40 g./T.): 2.59 Pounds
Average Feed Efficiency ([3]; narasin 0, actaplanin 40 g./T.): 6.18
Combined Daily Gain Data, percentage response compared with untreated control (steers [4]; [6]): 5.5 percentage
Combined Feed Efficiency Data, percentage response compared with untreated control (steers [4]; [6]): 1.3 percentage
Combined Daily Gain Data, percentage response compared with untreated control (steers [4]; [7]): 6.6 percentage
Combined Feed Efficiency Data, percentage response compared with untreated control (steers [4]; [7]): 4.4 percentage
Combined Daily Gain Data, percentage response compared with untreated control (steers [4]; [8]): 6.3 percentage
Combined Feed Efficiency Data, percentage response compared with untreated control (steers [4]; [8]): 5.8 percentage
Propionate Production (rumen fluid; Actaplanin 1 PPM): 13.0 ± 2.0 mM/24 hours
Propionate Production (rumen fluid; Actaplanin 4 PPM): 19.9 ± 3.0 mM/24 hours
Average Daily Dry Matter Intake [5, 9]: 12.86 lbs
Average Daily Dry Matter Intake % change from control [5, 9]: +4.1%
Average Daily Weight Gain [5, 9]: 2.44 lbs
Average Daily Weight Gain % change over control [5, 9]: +9.4%
Feed Efficiency [5, 9]: 5.28
Feed Efficiency % change from control [5, 9]: -4.9%
Average Daily Dry Matter Intake [5, 10]: 12.86 lbs
Average Daily Dry Matter Intake % change from control [5, 10]: +4.1%
Average Daily Weight Gain [5, 10]: 2.37 lbs
Average Daily Weight Gain % change over control [5, 10]: +6.3%
Feed Efficiency [5, 10]: 5.43
Feed Efficiency % change from control [5, 10]: -2.0%
Average Daily Dry Matter Intake [5, 11]: 12.47 lbs
Average Daily Dry Matter Intake % change from control [5, 11]: +1.0%
Average Daily Weight Gain [5, 11]: 2.39 lbs
Average Daily Weight Gain % change over control [5, 11]: +7.2%
Feed Efficiency [5, 11]: 5.22
Feed Efficiency % change from control [5, 11]: -6.1%
Average Daily Weight Gain (feeder calves): 1.38 pounds
feed efficiency (pounds of feed consumption required for one pound of animal weight gain) (feeder calves): 12.36
